Consider 89 compounds from a melting point compilation (Tetko et al.; mined from patent text by program, amines drawn as free bases though some values may be those of a salt).

The melting point is the temperature of the solid-liquid transition.

`Brc1ccc(OCCc2c[nH]cn2)cc1`: the melting point was 162 to 165 °C.
The figure for `CCN(c1nc(C)cc(C)n1)c1ccc(CC=NOC)cc1SC` is 106 to 108 °C; for `O=[N+]([O-])c1cccc(-c2ccnc3[nH]c4ccccc4c23)c1` it is over 220 °C; for `CCOC(=O)c1cnn(C)c1C(=O)Nc1ccc2nc(N(C)C)nn2c1` it is 194 °C.
Turning to `CC(C)(C)OC(=O)N1CCC(C2=C(C#N)C(c3ccccc3Cl)c3c[nH]nc3N2)CC1` (centres undefined), the melting point was over 280 °C.
Next, `CC(=O)Cn1cnc2c1c(=O)n(CC1CC1)c(=O)n2Cc1ccccc1`: 138 °C; `COc1cc(C(=O)c2ccc([N+](=O)[O-])cc2)c(CC(=O)O)cc1Br`: 189 to 192 °C.
Next, `CC(O)Cc1cc([N+](=O)[O-])cc([N+](=O)[O-])c1N` (centres undefined): 168 °C; `Cc1ccc(N(C)S(=O)(=O)c2cccs2)c2[nH]c(C3=NCC(C#N)S3)cc12` (centres undefined): 173 to 174 °C; `CCS(=O)(=O)c1ccc(-c2nc(-c3nc4cc(OC)cc(OC)c4c(=O)[nH]3)ccc2OCCNC(C)C)cc1`: 195 to 197 °C.
`CC(C)(C)OC(=O)NCC(=O)c1ccccc1`: the melting point was in the range of 63 to 65 °C.
The compound `Cc1ccc(NC(=O)NCc2ccc3c(c2)C(=O)N(C2(C)CCC(=O)NC2=O)C3=O)cc1Cl` (centres undefined) yielded a melting point of 232 to 234 °C.
The figure for `O=C(CCN1CCN(c2ncccn2)CC1)N1CC2CC3CC(C2)CC1C3` is 117 to 119 °C.
Compound `NNc1cc(OCC2CCCSC2)c(Cl)cc1F` (centres undefined) registered a melting point of 83 to 87 °C.
Next, `CCCCc1oc2ccccc2c1-c1ncc(-c2ccc3cc(OC(Cc4ccccc4)C(=O)O)ccc3c2)o1` (centres undefined): 174 to 177 °C; `COC(=O)c1ccc(C(=O)N(C)c2ccccc2)cc1`: 78 to 80 °C; `CC(=O)C(=C1SCCCN1C(C)=O)[N+](=O)[O-]`: 73.5 to 76 °C.
`CNC(=O)C1CN=CNC1` (centres undefined) had a melting point of 150 to 151 °C.
Next, `CC(C)=CCC/C(C)=C/COCC(=O)c1cc(C(C)(C)C)c(O)c(C(C)(C)C)c1`: 50 °C; `COC1CC(OCc2ccccc2)C(OS(=O)(=O)c2ccc(C)cc2)C(CO)O1` (centres undefined): 100 to 101 °C.
`CCOCc1nc2c(N)nc(C)c(C)c2n1NC1CCN(S(C)(=O)=O)CC1` yielded a melting point of 127 to 131 °C.
Consider `O=c1c2ccccc2[nH]n1C(c1ccccc1)c1ccccc1`, for which the melting point lay within 179 to 181 °C.
The figure for `Oc1ccc(CCNCC(O)c2ccc(OCc3ccccc3)cc2)cc1OCc1ccccc1` (centres undefined) is 124 to 125 °C; for `CN1C(=O)CC[C@]2(C)c3ccc(Sc4ccc5cc([N+](=O)[O-])ccc5n4)cc3CC[C@@H]12` it is 195 to 196 °C.
`C[C@@]1(CBr)OC(=O)[C@H]2CCCN2C1=O` showed a melting point of 107 to 109 °C.
Next, `CCCCc1nn(CC(F)(F)F)c(C(=O)O)c1Cc1ccc2oc(-c3ccccc3-c3nnn[nH]3)c(Br)c2c1`: 216 to 220 °C.
The figure for `N#CC(=Cc1ccc2[nH]ccc2c1)S(=O)(=O)c1ccc([N+](=O)[O-])cc1` is 219 to 221 °C.
Next, `C#CCn1c(C)c(CO)sc1=O`: 62 °C.
With `CCOC(=O)N1CCC(Nc2cc(OC)ccc2[N+](=O)[O-])CC1`, the melting point was 115 to 117 °C.
Next, `Cc1cc(C)c(NC(=O)N(Cc2ccc3c(c2)-c2ccccc2-3)C2CCCCCC2)c(C)c1`: 123 to 124 °C.
Regarding `Cc1ccc2c(c1)N(CC(=O)NC(C)(C)C)C(=O)C(Br)CC2c1ccccc1C` (centres undefined), the melting point lay within 219 to 221 °C.
For `O=C1OCC2C3OC(C4=C3CCCC4)C12` (centres undefined), the melting point was 105 to 106 °C.
The figure for `CCCc1cc(OC)ccc1-c1noc2cc(OC)ccc12` is 71 to 72 °C.
Next, `CCOc1cc2ncc(C#N)c(Nc3ccc4c(c3)C(=O)NC4=O)c2cc1OCC`: 248 to 251 °C; `C=Cc1cc(Cl)cc2[nH]c(=O)c(-c3ccccc3)c(O)c12`: 240 to 244 °C; `O=C(O)C(Cc1ccccc1)Oc1ccc(-c2ccc(-c3c(Cc4ccccc4)oc4ccccc34)cc2)cc1` (centres undefined): 164 to 166 °C.
The figure for `O=C(N[C@@H](Cc1ccccc1)C(=O)O)C(CS)C(F)(F)F` (some centres undefined) is 133 to 134 °C; for `CC(C)Cn1c(CN2CCOCC2)nc2c(N)nc3c(c21)CCCC3` it is 165 to 172 °C; for `COC(=O)c1ccc(S(C)(=O)=O)c(COC(C)=O)c1Cl` it is 165 to 168 °C.
Consider `O=C(Nc1cccnc1)N1CCN(c2nccc(-c3cccc(F)c3F)n2)CC1`, for which the melting point was 232 to 233 °C.
The figure for `CC1(C)Oc2ccc(C#N)cc2C(Oc2ccccn2)C1O` (centres undefined) is 102 to 103 °C.
The figure for `CCOC1CC2(C)C(CCC3C4CC=C(C(C)=O)C4(C)CC(=O)C32)CC1O` (centres undefined) is 89 to 91 °C; for `CCc1cc(COc2nn(Cc3ccccc3)cc2C(=O)O)ccc1OCc1nc(-c2ccco2)oc1C` it is 173 to 174 °C; for `CCCCCCNC(=N)NC#N` it is 103 to 105 °C.
Regarding `CCOC(=O)CSc1nnc(SCCCBr)s1`, the melting point lay in the range of 118 to 120 °C.
Next, `CC(=O)CC(=O)N1N=C(c2ccc([N+](=O)[O-])cc2)c2cc3c(cc2CC1C)OCO3` (centres undefined): 169 to 171 °C; `COC1=CC(C=C(C#N)C(=O)O)CC(OC)=C1OC` (centres undefined): 102 to 105 °C.
The figure for `Cc1cccc(-c2n[nH]cc2-c2ccc(F)c(-c3c[nH]c(C(O)CO)n3)c2)n1` (centres undefined) is 125 to 127 °C; for `CN(C(=O)C1(C(=O)O)CC1)c1ccc(Cl)cc1` it is 156 to 158 °C; for `Nc1cc(O)cc2cc(-c3ccc(O)cc3)oc12` it is 251 to 254 °C.
The figure for `COc1cc(OC)c(F)c(N)c1F` is 78 to 79 °C; for `Cc1nc2c(c(=O)[nH]1)-c1cc(S(=O)(=O)Nc3ccc([N+](=O)[O-])cc3)ccc1CC2` it is over 240 °C; for `CCOC(=O)c1cn(Cc2ccccc2)nc1NC(=O)N(C)C` it is 125 to 126 °C.
As for `COc1ccc2c(c1)C(c1ccc(OCCN3CCCCC3)cc1)c1c-2ccc2cc(OC)ccc12` (centres undefined), the melting point is 162 to 164 °C.
The figure for `S=C(NCc1ccccc1)C1(c2ccccn2)CCCS1` (centres undefined) is 71 °C.
For `CN(C(=O)c1cccc(C(F)(F)F)c1)c1ccccc1CCCCC(=O)O`, the melting point lay in the range of 81 to 83 °C.
Take `Cc1c(Br)c(O)c(Cc2ccc(C(C)C)cc2)c(C)c1N(Cc1ccccc1)C(=O)CC(C)(C)C`: the melting point lay within 107 to 108 °C.
Next, `Fc1ccc2[nH]cc(CC3CCN(CCOc4cccc5c4OCCO5)CC3)c2c1`: 157 to 159 °C; `CCCCC(O)CN1CCC2(CC1)CSC1=C(O2)c2ccccc2C(=O)C1=O` (centres undefined): 160 to 163 °C.
Next, `O=C(C=Cc1cccnc1)NCCCCC1CCN(Cc2ccccc2)CC1`: 88 to 90 °C; `COc1ccc(CN(OC)C(=O)C2=C(O)C(=O)N(C)C2)cc1`: 135 to 137 °C; `COc1cc(C(C)=O)ccc1OCCCCN1CCC(c2noc3ccccc23)CC1`: 99 to 101 °C.
The figure for `Cc1c(C(=O)Nc2cc(Cl)c(N3CCC(N4CCOCC4)CC3)c(Cl)c2)cnn1-c1ccc(Cl)cc1` is 246 to 248 °C; for `O=C(O)C=C(c1ccccc1)c1ccccc1` it is 162 to 164 °C; for `Cc1cc(-c2ccc(Cl)cc2)nc2c(C(=O)Nc3cccc(S(N)(=O)=O)c3)cnn12` it is 308 to 310 °C.
In turn, `CCOC(=O)Cc1cc(O)n[nH]1` yielded a melting point of 114 to 117 °C.
The figure for `NC(=O)C1C=Cc2ccccc2N1C(=O)c1ccccc1` (centres undefined) is 169 to 171 °C; for `CCN(c1ccc(Cl)cc1[N+](=O)[O-])S(=O)(=O)c1ccc(C#N)cc1` it is 146 to 148 °C; for `CS(=O)(=O)Nc1n[nH]c(-c2ccncc2)c1-c1ccc(F)cc1` it is 168 to 170 °C.
The figure for `CCC12CC(Cl)C3C4CCC(=O)C=C4CCC3C1C(O)CC2=O` (centres undefined) is 169 to 170 °C; for `CCOC(=O)CNc1ncccc1NC(=O)c1ccc(Cl)cc1` it is 133 to 134 °C; for `CCc1coc2cc(OCc3ccccc3)ccc12` it is 69.5 to 70.5 °C.
The figure for `N#CCC1COc2ccccc2C1` (centres undefined) is 54 to 55.5 °C; for `CCCc1[nH]c2cc(C(N)=O)ccc2c1C(=O)COC` it is 165 to 167 °C.
On to `Cc1nnc(-c2ccc3occ(-c4ccc(C(C)O)cc4)c3c2)o1` (centres undefined), for which the melting point was 148 to 149 °C.
The figure for `OC1CCCCC1n1c(Br)nc2cc(Cl)c(Cl)cc21` (centres undefined) is 186 to 188 °C.
Take `CC(C)(C)OC(=O)Nc1cc(CC#N)c(C#Cc2ccccc2)cc1[N+](=O)[O-]`: the melting point amounted to 166 °C.
Next, `O=C(C=Cc1cccc(S(=O)(=O)N2CCN(c3ccccc3F)CC2)c1)NO`: 176 °C; `CCC#COc1ccc(S(=O)(=O)NC(CSC)C(=O)NO)cc1` (centres undefined): 128 to 130 °C.
The figure for `O=C1Nc2ccccc2OC1CCCN1CCC(Cc2ccccc2)CC1` (centres undefined) is 108 °C; for `CCc1oc(-c2ccc(S(C)(=O)=O)cc2)c(Oc2ccc(F)cc2F)c(=O)c1C` it is 200 °C; for `CC12CCC3C(CCC4CC=CCC43C)C1CCC2C#N` (centres undefined) it is 110 to 112 °C.
`Cc1ccn(-c2ccc(C(=O)N3Cc4ccc(CN(C)C)n4Cc4ccccc43)c(Cl)c2)n1` displayed a melting point of 100 to 102 °C.
The figure for `Cc1ccc([N+](=O)[O-])c(OC2CCOC2=O)c1` (centres undefined) is 68 to 70 °C.
The figure for `COc1ccc(-c2nc(COc3cccc(N)c3)c(C)o2)cc1` is 132 to 134 °C; for `COc1ccc(CN(C)CCc2ccc(NC(=O)c3cccc4c(=O)c5ccccc5sc34)cc2)cc1OC` it is 180 °C; for `COc1ccc2nc(-c3cccc(C)c3)cc(OCc3ccccc3)c2c1` it is 133 to 134 °C.
Next, `CCCc1nc2c(N)nc3ccc(-c4cccc(NS(C)(=O)=O)c4)cc3c2s1`: 244 to 246 °C; `Nc1cc(Cl)c(Cl)cc1I`: 79.5 to 80.5 °C.
